Where two headings read alike, the source gives them in different places.
What was measured:
[1] = system: cell; details: cited from earlier work
[2] = system: Bcl-2 and Bcl XL; details: literature value, cited from earlier work
[3] = system: HL60, human leukemic cells expressing high Bcl-2 and low Bcl-XL levels; assay: Acute cytotoxicity (apoptotic activity), Alamar Blue viability, HL-60 cells; assay type: cell-based; details: Homo sapiens, HL-60, 4 h; read-out: LC 50 (μM) HL-60
Method: (§1) The biological activity of the compounds provided herein were assessed in cellular system by the method similar to the one described by Amundson et al. (Amundson, S. A. et al, Cancer Research 2000, 60, 6101-6110), which is incorporated herein by reference in its entirety. The compounds were tested for acute cytotoxicity (apoptotic activity) using two human cancer cell lines expressing high levels of either Bcl-2 or BCl-XL. HL60, human leukemic cells expressing high Bcl-2 and low BCl-XL levels, and A549 human lung cells expressing low Bcl-2 and high BCl-XL levels, were incubated with the compounds at concentrations between 0.5 and 1000 μg/mL for 4 hours at 37° C., 5% CO2. The number of viable cells were measured by mitochondrial transformation of Alamar Blue to a fluorescent dye. LC50 values for each test compound and controls are provided in the individual examples that follow.
(§2) The compounds provided herein were tested for acute cytoxicity (apoptotic activity) using two human cancer cell lines expressing high levels of either Bcl-2 or BCl-XL. HL-60 cells expressing high Bcl-2 and low Bcl-XL levels, and A549 human lung cells expressing low Bcl-2 and high Bcl-XL levels were incubated with the compounds provided herein at concentrations between 0.5 and 1000 μg/mL for 4 hours at 37° C., 5% CO2. The number of viable cells were measured by mitochondrial transformation of Alamar Blue to a fluorescent dye. As negative controls, the compounds were tested against the cell lines with low levels of Bcl-2 expression, viz., MDA-453 cells. LC50 values for each compound and controls were determined.

[4] = system: A549 human lung cells expressing low Bcl-2 and high Bcl-XL levels; assay: Acute cytotoxicity (apoptotic activity), Alamar Blue viability, A549 cells; assay type: cell-based; details: Homo sapiens, A549, 4 h; read-out: LC 50 (μM) A549
Method: as §1, §2

## CCCC[C@H]1C(=O)O[C@H](C)[C@H](NC(=O)c2cccc(NC=O)c2O)C(=O)O[C@@H](C)[C@@H]1OC(=O)CC(C)C [compound 2]
[1]
  CC50: 1.2 µM

## O=C(Nc1cc(S(=O)(=O)c2ccc(Cl)cc2)ccc1Cl)c1cc(Cl)cc(I)c1O [compound 6, reference compound]
[2]; protein not specified
  IC50: 3.3 µM
[1]; read-out: LC50 (cell), cell line not specified, literature value
  CC50: ~30 µM
[3]
  CC50: < 50 µM
[4]
  CC50: > 200 µM

## CC(C)Cc1cc(-c2ccc(-c3ccc(OCC(=O)O)c(CC(C)C)c3)c(Cc3cccc4ccccc34)c2)ccc1CCC(=O)O [compound 7]
[2]; Bcl-2 antagonist
  IC50: 0.114 µM
